According to patent US20240360091A1, “GLUN2B-SUBUNIT SELECTIVE ANTAGONISTS OF THE N-METHYL-D-ASPARTATE RECEPTORS WITH ENHANCED POTENCY AT ACIDIC PH” (Emory University, priority 2021, published 2024):
Like-named read-outs stand apart in the source and are kept apart here.

Legend:
[1] = target: CYP3A4 (Homo sapiens (Human), UniProt P08684); test: Cytochrome P450 inhibition (Vivid CYP blue screening kit), CYP3A4; format: in vitro ADME; conditions: 1 μM
Description: (§1) Inhibition of CYP2D6 and CYP3A4 was accomplished using recombinant human isoforms and a Vivid CYP blue screening kit (Invitrogen, USA) by incubating 2-fold serial dilutions (9 samples) of the test compound with kit reagents and reaction buffer according to the manufacturer's methods in a 96-well plate. The plate was then incubated at room temperature for 30 min before fluorescence was measured with a plate reader. For these studies, reference standards ketoconazole (CYP3A4) and quinidine (CYP2D6) were used as controls.

[2] = system: motor coordination of mice on rotarod; test: Rotarod performance; format: in vivo, mouse; conditions: for rotarod impairment: all four trials
Description: The locomotor and rotarod studies were approved by the Georgia State University IACUC, an AAALAC accredited institution under the supervision of licensed veterinarians. Mice were group housed, provided nestlets and shelters with access to food pellets and water ad libitum under a 12-hour light/dark cycle.
For rotarod experiments, male C57BL/6 mice (>90 days old) were tested using a Rotamax 4/8 rotarod (Columbus Instruments, Columbus, Ohio). Prior to training and testing, the mice were brought to the testing room and allowed to acclimate for two hours prior to any further handling. Mice were placed on a rotating rod (5 rpm), 3.8 cm in diameter and 8 cm wide, elevated 30 cm from the floor of a chamber. After 10 sec of rotation at a fixed velocity, the rotation was slowly accelerated from 5 to 35 rpm over a 5 min period. The duration of time that the mouse could stay on the rotarod, without hanging on for a full rotation or without falling, was recorded. Mice were trained 4 times at 25 min inter-trial intervals on each day for two days. On day three, mice were randomly assigned to treatment groups and administered test drug or vehicle (via IP administration) 25 min prior to testing (4 trials with inter-trial interval of 25 min). Individuals performing the experiment were blinded to the identity of each treatment group. Results were analyzed by ANOVA and Dunnett's post hoc test to compare duration of time on the rotating rod of drug-treated groups to the vehicle controls.

[3] = target: Alpha2C (Homo sapiens (Human), UniProt P18825); test: Off-target radioligand binding displacement (NIMH PDSP); conditions: pH 7.4
Description: (§2) Briefly, the compound was submitted to the NIMH PDSP and screened at a single concentration (10 μM) of test article under equilibrium conditions for ability to displace specific radioligands from binding to their targets expressed in mammalian cell membranes in vitro. Each receptor target was assayed in quadruplicate and the % inhibition of radioligand binding at each target determined at pH 7.4. […]

[4] = target: SERT (Homo sapiens (Human), UniProt P31645); test: as above; conditions: pH 7.4
Description: as §2

[5] = target: 5-HT2B (Homo sapiens (Human), UniProt P41595); test: biochemical
Description: as §2

[6] = target: CYP2D6 (Homo sapiens (Human), UniProt P10635); test: Cytochrome P450 inhibition (Vivid CYP blue screening kit), CYP2D6; format: in vitro ADME; conditions: 1 μM
Description: as §1

[7] = target: 5-HT1B (Homo sapiens (Human), UniProt P28222); test: Off-target radioligand binding displacement (NIMH PDSP); conditions: pH 7.4
Description: as §2

[8] = Pharmacokinetics in the brain compartment compared to plasma in mice; format: in vivo; conditions: BALB/c, mouse; for Cmax at 1 h: iv
Description: (§3) Formulation for pharmacokinetic studies used 2% or 10% N′,N′-dimethylacetamide, 10% propylene glycol, and 30% 2-hydroxypropyl-beta-cyclodextrin in water and a dose volume of 10 mL/kg (all routes of administration).
Here, brain samples were first washed in deionized water to remove blood, the weight recorded, then transferred into fresh 1 mL water, homogenized, and stored at −80° C. until analysis. The ratio of compound in brain (g) compared to blood (mL) was then calculated.

[9] = in vivo; conditions: BALB/c, mouse, plasma
Description: as §3
Briefly, mice were administered a 2 mg/kg or a 5 mg/kg dose (n=3 each) by IP injection (10 mL/kg dose volume) and blood samples collected at 0.08, 0.25, 0.5, 1, 2, 4, 8 and 24 hours post dose in tubes containing sodium heparin on ice. 100 μL of plasma was combined with 50 μL of internal standard (haloperidol, 10 μg/mL) and tubes were then spun at 4000 g for 10 min (4° C.) and plasma transferred to clean tubes and stored at −80° C. until analysis.
Blood samples were collected on ice in sodium heparin tubes at 0.08, 0.25, 0.5, 1, 2, 4, 8, and 24 hours post dose. Samples were prepared and analyzed as described above except here the internal standard was fluconazole (10 μg/mL).

[10] = target: hERG potassium channel (Homo sapiens (Human), UniProt Q12809); test: hERG potassium channel current, automatic patch clamp in HEK cells; format: cell-based; conditions: pH 7.4, patch clamp; read-out: Functional IC50 (μM) hERG
Description: Each test concentration was tested in two or more cells (n≥2). Duration of exposure to each test article concentration was 3 minutes. A positive control (0.5 μM […]) was used to confirm the sensitivity of the cells to an hERG inhibitor.

Alpha2C, sequence (P18825 whole entry): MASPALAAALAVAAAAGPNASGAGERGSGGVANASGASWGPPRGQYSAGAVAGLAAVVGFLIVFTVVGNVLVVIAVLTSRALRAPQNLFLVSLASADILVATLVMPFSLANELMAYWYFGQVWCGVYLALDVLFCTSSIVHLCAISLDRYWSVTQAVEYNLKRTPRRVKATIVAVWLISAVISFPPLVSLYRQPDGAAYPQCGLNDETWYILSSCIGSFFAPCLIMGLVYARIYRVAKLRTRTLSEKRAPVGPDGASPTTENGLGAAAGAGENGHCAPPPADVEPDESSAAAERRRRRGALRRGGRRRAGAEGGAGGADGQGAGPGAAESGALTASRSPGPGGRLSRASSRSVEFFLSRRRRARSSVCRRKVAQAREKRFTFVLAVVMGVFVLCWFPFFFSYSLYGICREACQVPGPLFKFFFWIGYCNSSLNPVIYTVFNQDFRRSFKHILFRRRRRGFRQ
5-HT1B, sequence (P28222 whole entry, species assumed): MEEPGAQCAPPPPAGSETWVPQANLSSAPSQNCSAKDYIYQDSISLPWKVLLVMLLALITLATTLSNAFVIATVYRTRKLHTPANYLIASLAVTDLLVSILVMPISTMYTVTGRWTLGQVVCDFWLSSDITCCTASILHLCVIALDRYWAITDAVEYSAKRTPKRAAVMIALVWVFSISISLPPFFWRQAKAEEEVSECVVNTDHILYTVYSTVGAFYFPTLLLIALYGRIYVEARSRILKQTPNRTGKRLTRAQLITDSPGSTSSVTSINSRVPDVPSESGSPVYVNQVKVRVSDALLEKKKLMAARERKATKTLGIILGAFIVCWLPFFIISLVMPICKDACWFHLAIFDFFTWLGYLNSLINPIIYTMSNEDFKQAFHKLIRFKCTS
hERG potassium channel, sequence (Q12809 whole entry): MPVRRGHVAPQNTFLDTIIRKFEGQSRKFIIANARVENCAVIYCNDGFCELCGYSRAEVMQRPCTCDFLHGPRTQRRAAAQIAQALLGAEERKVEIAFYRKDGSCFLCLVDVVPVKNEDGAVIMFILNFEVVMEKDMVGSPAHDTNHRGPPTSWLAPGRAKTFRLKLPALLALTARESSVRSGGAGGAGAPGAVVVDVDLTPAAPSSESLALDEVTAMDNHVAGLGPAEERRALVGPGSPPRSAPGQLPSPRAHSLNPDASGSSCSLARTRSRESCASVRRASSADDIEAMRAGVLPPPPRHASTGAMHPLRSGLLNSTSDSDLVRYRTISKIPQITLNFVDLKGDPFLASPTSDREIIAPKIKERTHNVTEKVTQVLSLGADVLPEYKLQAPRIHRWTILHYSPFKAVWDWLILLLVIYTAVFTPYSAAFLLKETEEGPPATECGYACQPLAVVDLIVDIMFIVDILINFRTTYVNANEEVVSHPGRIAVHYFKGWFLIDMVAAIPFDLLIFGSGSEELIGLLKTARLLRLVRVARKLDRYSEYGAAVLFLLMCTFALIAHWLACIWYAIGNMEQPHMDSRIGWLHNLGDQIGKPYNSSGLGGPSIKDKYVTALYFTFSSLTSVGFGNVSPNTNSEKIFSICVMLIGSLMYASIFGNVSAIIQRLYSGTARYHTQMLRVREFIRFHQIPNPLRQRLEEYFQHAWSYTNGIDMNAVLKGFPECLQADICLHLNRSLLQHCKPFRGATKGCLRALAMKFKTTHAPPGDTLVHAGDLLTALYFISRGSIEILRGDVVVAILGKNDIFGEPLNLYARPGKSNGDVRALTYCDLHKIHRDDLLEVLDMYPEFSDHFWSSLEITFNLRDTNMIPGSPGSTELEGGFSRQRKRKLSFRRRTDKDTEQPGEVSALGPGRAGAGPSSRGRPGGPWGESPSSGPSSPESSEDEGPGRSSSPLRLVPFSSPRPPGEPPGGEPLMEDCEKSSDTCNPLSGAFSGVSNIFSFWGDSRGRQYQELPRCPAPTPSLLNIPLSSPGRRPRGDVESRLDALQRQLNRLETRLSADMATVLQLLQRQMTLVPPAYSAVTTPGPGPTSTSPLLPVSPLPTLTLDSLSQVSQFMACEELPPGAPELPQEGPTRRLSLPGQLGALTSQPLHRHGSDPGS
5-HT2B, sequence (P41595 whole entry, species assumed): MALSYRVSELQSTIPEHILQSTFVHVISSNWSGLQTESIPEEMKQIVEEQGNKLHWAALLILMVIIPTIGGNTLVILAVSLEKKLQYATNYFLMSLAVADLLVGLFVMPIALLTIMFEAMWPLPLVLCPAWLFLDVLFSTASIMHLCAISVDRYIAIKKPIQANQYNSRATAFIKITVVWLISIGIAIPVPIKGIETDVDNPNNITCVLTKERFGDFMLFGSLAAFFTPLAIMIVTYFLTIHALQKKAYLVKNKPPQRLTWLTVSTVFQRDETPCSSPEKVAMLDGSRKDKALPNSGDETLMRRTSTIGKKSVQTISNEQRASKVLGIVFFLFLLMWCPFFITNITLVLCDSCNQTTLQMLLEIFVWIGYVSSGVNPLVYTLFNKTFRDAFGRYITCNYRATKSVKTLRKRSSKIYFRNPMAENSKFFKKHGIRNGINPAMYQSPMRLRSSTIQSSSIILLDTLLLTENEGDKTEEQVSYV
CYP3A4, sequence (P08684 whole entry, canonical isoform): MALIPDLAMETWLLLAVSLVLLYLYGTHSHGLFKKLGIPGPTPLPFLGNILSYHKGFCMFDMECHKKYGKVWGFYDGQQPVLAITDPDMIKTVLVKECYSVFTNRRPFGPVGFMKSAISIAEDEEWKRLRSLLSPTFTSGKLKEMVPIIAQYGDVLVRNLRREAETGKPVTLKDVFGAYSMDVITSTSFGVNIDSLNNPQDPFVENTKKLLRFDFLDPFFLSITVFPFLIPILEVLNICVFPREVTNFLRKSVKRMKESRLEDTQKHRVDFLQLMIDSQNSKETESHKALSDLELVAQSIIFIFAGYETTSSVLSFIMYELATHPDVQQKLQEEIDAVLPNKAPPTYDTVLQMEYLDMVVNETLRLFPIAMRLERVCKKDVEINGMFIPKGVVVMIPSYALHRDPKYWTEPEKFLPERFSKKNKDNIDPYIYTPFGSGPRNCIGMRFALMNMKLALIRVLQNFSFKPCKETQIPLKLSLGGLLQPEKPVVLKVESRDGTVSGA
CYP2D6, sequence (P10635 whole entry): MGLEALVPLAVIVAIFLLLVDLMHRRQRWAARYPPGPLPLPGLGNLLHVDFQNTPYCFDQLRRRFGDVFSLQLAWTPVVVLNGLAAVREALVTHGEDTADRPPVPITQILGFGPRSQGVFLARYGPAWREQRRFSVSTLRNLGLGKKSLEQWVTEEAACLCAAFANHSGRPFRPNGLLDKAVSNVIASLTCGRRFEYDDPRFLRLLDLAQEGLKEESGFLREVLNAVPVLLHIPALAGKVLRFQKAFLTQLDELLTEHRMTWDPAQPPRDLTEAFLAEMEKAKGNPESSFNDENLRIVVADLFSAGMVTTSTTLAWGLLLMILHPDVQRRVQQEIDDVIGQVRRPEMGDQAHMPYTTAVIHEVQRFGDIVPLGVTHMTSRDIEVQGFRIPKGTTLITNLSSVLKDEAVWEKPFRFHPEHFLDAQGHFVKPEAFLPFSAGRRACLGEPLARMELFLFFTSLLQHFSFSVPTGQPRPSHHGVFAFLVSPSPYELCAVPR
SERT, sequence (P31645 whole entry, species assumed): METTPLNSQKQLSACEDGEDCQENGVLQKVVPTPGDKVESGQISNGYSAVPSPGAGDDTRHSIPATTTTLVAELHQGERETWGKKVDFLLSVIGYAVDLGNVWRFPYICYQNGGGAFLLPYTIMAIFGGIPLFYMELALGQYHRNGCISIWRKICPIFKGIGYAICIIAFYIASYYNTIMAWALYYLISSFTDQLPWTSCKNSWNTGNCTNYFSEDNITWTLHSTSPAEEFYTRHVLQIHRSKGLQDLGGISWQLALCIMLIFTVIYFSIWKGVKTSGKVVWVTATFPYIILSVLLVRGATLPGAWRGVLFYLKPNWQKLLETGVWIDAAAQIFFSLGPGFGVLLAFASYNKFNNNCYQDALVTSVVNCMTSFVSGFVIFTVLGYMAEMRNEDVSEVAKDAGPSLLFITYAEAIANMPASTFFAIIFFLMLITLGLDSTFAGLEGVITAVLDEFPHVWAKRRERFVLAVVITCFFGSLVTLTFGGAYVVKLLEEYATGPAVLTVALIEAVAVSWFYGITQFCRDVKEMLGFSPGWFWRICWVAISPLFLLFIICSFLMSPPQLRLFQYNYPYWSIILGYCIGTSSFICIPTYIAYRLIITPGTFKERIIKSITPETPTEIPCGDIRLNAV

Compound: O=C1CCc2cc(OC[C@H](O)CN3CCN(c4ccc(C(F)(F)F)cc4)CC3)ccc2N1 [NP10679]
- inhibition of CYP3A4 [1]: did not inhibit
- rotarod impairment ([2]; 2 mg/kg IP): no significant impairment
- rotarod impairment ([2]; 5 mg/kg IP): no significant impairment
- latency to fall ([2]; 10 mg/kg IP, fourth trial): 87 ± 13 s
- latency to fall, change from the vehicle control ([2]; 10 mg/kg IP, trials 1, 2, or 3): no statistically significant change
- Ki [3]: 3.09 µM
- Ki [4]: 0.135 µM
- Ki [5]: 1.92 µM
- inhibition of CYP2D6 [6]: did not inhibit
- Ki [7]: > 10 µM
- concentration at 1 h ([8]; brain, intraperitoneal, 5 mg/kg, 5 mg/kg IP, 1 hour post dosing, read-out: estimated free drug concentration in the brain): 60 to 134 nM
- concentration at 2 h ([8]; brain, intraperitoneal, 5 mg/kg, 5 mg/kg IP, 2 hours post dosing, read-out: estimated free drug concentration in the brain): 51 to 103 nM
- concentration at 4 h ([8]; brain, intraperitoneal, 5 mg/kg, 5 mg/kg IP, 4 hours post dosing, read-out: estimated free drug concentration in the brain): 33 to 66 nM
- concentration at 8 h ([8]; brain, intraperitoneal, 5 mg/kg, 5 mg/kg IP, 8 hours post dosing, read-out: estimated free drug concentration in the brain): 28 to 56 nM
- concentration at 1 h ([8]; brain, intravenous, 3 mg/kg, 3 mg/kg IV, Study 1, 1 hour, read-out: Brain Conc.): 1740 ng/g
- concentration at 1 h ([8]; brain, intravenous, 3 mg/kg, 3 mg/kg IV, Study 2A (2% DMA formulation), 1 hour, read-out: Brain Conc.): 1420 ng/g
- concentration at 1 h ([8]; brain, intravenous, 3 mg/kg, 3 mg/kg IV, Study 2B, 1 hour, read-out: Brain Conc.): 2100 ng/g
- Cmax at 1 h ([8]; plasma, 3 mg/kg, 3 mg/kg IV, Study 1, 1 hour): 2300 ng/mL
- Cmax at 1 h ([8]; plasma, 3 mg/kg, 3 mg/kg IV, Study 2A (2% DMA formulation), 1 hour): 600 ng/mL
- Cmax at 1 h ([8]; plasma, 3 mg/kg, 3 mg/kg IV, Study 2B, 1 hour): 817 ng/mL
- Tmax ([8]; plasma, 3 mg/kg IV, Study 1): 1 h
- AUC(0-t) ([9]; iv, 3 mg/kg): 17800 ng·h/mL
- Cmax ([9]; iv, 3 mg/kg): 2350 ng/mL
- Tmax ([9]; iv, 3 mg/kg): 0.08 h
- Vd ([9]; iv, 3 mg/kg): 1.59 L/kg
- clearance ([9]; iv, 3 mg/kg): 2.44 mL/min/kg
- half-life ([9]; iv, 3 mg/kg): 8.56 h
- bioavailability ([9]; oral, 10 mg/kg): 75.7%
- AUC(0-inf) ([9]; po, 10 mg/kg): 49500 ng·h/mL
- AUC(0-t) ([9]; po, 10 mg/kg): 45000 ng·h/mL
- Cmax ([9]; po, 10 mg/kg): 3600 ng/mL
- Tmax ([9]; po, 10 mg/kg): 1 h
- half-life ([9]; po, 10 mg/kg): 7.06 h
- AUC(0-inf) ([9]; male, ip, 2 mg/kg): 5690 ng·h/mL
- AUC(0-t) ([9]; male, ip, 2 mg/kg): 4750 ng·h/mL
- Cmax ([9]; male, ip, 2 mg/kg): 581 ng/mL
- Tmax ([9]; male, ip, 2 mg/kg): 0.5 h
- half-life ([9]; male, ip, 2 mg/kg): 9.9 h
- AUC(0-inf) ([9]; male, ip, 5 mg/kg): 13100 ng·h/mL
- AUC(0-t) ([9]; male, ip, 5 mg/kg): 11800 ng·h/mL
- Cmax ([9]; male, ip, 5 mg/kg): 1430 ng/mL
- Tmax ([9]; male, ip, 5 mg/kg): 0.5 h
- half-life ([9]; male, ip, 5 mg/kg): 7.5 to 9.9 h
- IC50 [10]: 0.617 µM
